Measurements reported in patent US20260144788A1, “COMPOUND FOR SHP2 PROTEIN DEGRADATION AND MEDICAL USES THEREOF” (UBIX THERAPEUTICS, INC., priority 2022, published 2026).

Molecular target: T1, SHP2 protein (Homo sapiens, UniProt Q06124)
T1 sequence (Q06124 1-593): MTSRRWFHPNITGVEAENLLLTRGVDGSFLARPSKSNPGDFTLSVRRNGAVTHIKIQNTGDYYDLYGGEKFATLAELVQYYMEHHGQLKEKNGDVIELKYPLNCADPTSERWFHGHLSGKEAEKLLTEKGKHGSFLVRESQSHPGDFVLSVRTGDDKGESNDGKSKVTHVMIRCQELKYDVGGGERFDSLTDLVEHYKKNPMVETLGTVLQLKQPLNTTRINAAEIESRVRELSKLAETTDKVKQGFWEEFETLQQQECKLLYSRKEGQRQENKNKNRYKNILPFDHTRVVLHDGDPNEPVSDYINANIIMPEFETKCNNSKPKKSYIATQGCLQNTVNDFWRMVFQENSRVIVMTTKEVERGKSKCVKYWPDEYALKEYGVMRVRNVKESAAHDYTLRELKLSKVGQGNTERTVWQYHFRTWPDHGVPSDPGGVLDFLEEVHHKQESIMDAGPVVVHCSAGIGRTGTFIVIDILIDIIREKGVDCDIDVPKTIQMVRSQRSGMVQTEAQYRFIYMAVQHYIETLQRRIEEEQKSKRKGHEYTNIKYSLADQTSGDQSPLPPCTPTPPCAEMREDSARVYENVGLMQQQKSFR
Experiment: Measurement of SHP2 protein degradation in NCI-H358 cells (western blotting)
Type: cell-based
Set-up: endogenous in cells; host or cells: NCI-H358
Details: harvested after 24 hours
Protocol: H358 cells were treated with the synthesized Example compounds, and the amount of SHP2 protein present in the cells was measured using western blotting detection. The protocol for the experiment using H358 cells is as follows.
[Culture]H358 cells were resuspended in RPMI1640 with 25 mM HEPES (Hyclone, SH30255.01), 10% FBS (Hyclone, SV30207.02), 1% Penicillin-streptomycin (Welgene, LS 202-02) media, seeded at 3×10^5/mL in 12-well plates (1 mL each), and cultured for 24 hours.
[Compound treatment] Before compound treatment, the media was changed to 1 mL media, and then the 12-well plate was treated as follows. The 10 mM stock dissolved in DMSO was serially diluted 1/100 or 1/10 with the media, and the compound was treated to the cells at a final concentration of 0.001, 0.01, and 0.1 μM, and harvested after 24 hours. For the negative control group, DMSO diluted 1/1000 in the media was added (1 μL DMSO+999 μL media).
[Harvest]24 hours after compound treatment, each well was scraped with a cell lifter (SPL, 90040), pipetted with a 1 mL pipette, collected in a 1.5 mL microtube, and centrifuged (500 g, 5 min, 4° C.). The supernatant was removed, washed with PBS, and centrifuged again (500 g, 5 min, 4° C.). Afterwards, the supernatant was removed to prepare a pellet.
[Cell lysis and sample preparation] Lysis buffer was prepared as follows. RIPA buffer (Biosesang, RC2038-050-00)+0.5 mM PMSF (SIGMA, P7626)+1× Protease/Phosphatase Inhibitor (Cell signaling, 5872S) were added at 30 μL per tube, vortexed, and incubated on ice for 30 minutes. Afterwards, sonication was performed (10 sec pulse, 30 sec rest, 5 cycles, 70% amplification) and centrifugation was performed (15,000 g, 15 min, 4° C.), and only the supernatant was transferred to a microtube. A 96-well plate was diluted to 1/4 with 7.5 μL of RIPA buffer and 2.5 μL of sample, and 200 μL each was added after mixing A and B of the BCA Protein Assay Kit (iNtRON, 21071) in a ratio of 50:1. The plate was incubated at 37° C. for 30 minutes and left at room temperature for 10 minutes. After shaking for 10 seconds with a SYNERGY H1 microplate reader from BioTek, the absorbance was measured at 562 nm. The protein was quantified using the measured value to make a sample, which was then incubated at 70° C. for 10 minutes. The sample buffer used here was a mixture of NuPAGE or Bolt 4× sample buffer (Invitrogen) and each 10× sample reducing agent depending on the gel to be used, and RIPA buffer was used for protein dilution.
[Western blotting detection] Equal amounts of samples were loaded onto NuPAGE or Bolt Bis-tris 4-12% gradient gel and run (200 V, 35 min). This was transferred to […] NC membrane using Trans-blot Turbo (BIO-RAD) (1.3 A constant, 25 V limit, 15 min), and blocked with 5% skim milk/0.2% TBST for 45 min at room temperature. Anti-SHPTP2 Mouse (1:1,000 in 5% skim milk/0.2% TBST, size: 70 kDa, Santa cruz sc-7384) and Anti-GAPDH Rabbit (1:2,000 in 5% skim milk or 5% BSA/0.2% TBST, size: 37 kDa, CST #2118) were added and incubated overnight at 4° C. After washing three times with 0.2% TBST washing buffer for 5 minutes each, secondary antibodies Anti-Mouse IgG (1:5,000 in 5% skim milk/0.2% TBST, CST) and IRDye® 680RD Goat anti-Rabbit IgG Secondary Antibody (1:10,000 in 5% skim milk/0.2% TBST, LI-COR 926-68071) were added, and incubated on a rocker at room temperature for 45 minutes. The resultants were washed five times with 0.2% TBST washing buffer for 5 minutes each, and detected using LI-COR's Odyssey. GAPDH was detected with a 700 nm channel, and SHPTP2 was detected using SuperSignal West Pico PLUS Chemiluminescent Substrate.

SMILES	SHP2% degradation (0.01 μM)	SHP2% degradation (0.1 μM)
CC(=O)N[C@H](C(=O)N1C[C@H](O)C[C@H]1C(=O)NCc1ccc(-c2scnc2C)cc1O[C@H]1CC[C@H](C(=O)N2CC(Nc3nccc(Sc4cnc(N5CCC6(CC5)CO[C@@H](C)[C@H]6N)cn4)c3Cl)C2)CC1)C(C)(C)C [Example 40, (2S,4R)-1-((S)-2-acetamido-3,3-dimethylbutanoyl)-N-(2-(((1R,4S)-4-(3-((4-((5-((3S,4S)-4-amino-3-methyl-2-oxa-8-azaspiro[4.5]decan-8-yl)pyrazin-2-yl)thio)-3-chloropyridin-2-yl)amino)azetidine-1-carbonyl)cyclohexyl)oxy)-4-(4-methylthiazol-5-yl)benzyl)-4-hydroxypyrrolidine-2-carboxamide]	94.2%	95.9%
Cc1ncsc1-c1ccc(CNC(=O)[C@@H]2C[C@@H](O)CN2C(=O)[C@@H](NC(=O)C2(F)CC2)C(C)(C)C)c(O[C@H]2CC[C@H](C(=O)N3CCC(Nc4nccc(Sc5cnc(N6CCC7(CC6)CO[C@@H](C)[C@H]7N)cn5)c4Cl)CC3)CC2)c1 [Example 25, (2S,4R)—N-(2-(((1R,4S)-4-(4-((4-((5-((3S,4S)-4-amino-3-methyl-2-oxa-8-azaspiro[4.5]decan-8-yl)pyrazin-2-yl)thio)-3-chloropyridin-2-yl)amino)piperidine-1-carbonyl)cyclohexyl)oxy)-4-(4-methylthiazol-5-yl)benzyl)-1-((S)-2-(1-fluorocyclopropane-1-carboxamido)-3,3-dimethylbutanoyl)-4-hydroxypyrrolidine-2-carboxamide]	94.2%	97.0%
CC(=O)N[C@H](C(=O)N1C[C@H](O)C[C@H]1C(=O)NCc1ccc(-c2scnc2C)cc1OC1CCN(C(=O)C2CCN(c3cccc(Sc4cnc(N5CCC(C)(CN)CC5)c(CO)n4)c3Cl)CC2)CC1)C(C)(C)C [Example 83, (2S,4R)-1-((S)-2-acetamido-3,3-dimethylbutanoyl)-N-(2-((1-(1-(3-((5-(4-(aminomethyl)-4-methylpiperidin-1-yl)-6-(hydroxymethyl)pyrazin-2-yl)thio)-2-chlorophenyl)piperidine-4-carbonyl)piperidin-4-yl)oxy)-4-(4-methylthiazol-5-yl)benzyl)-4-hydroxypyrrolidine-2-carboxamide]	97.8%	99.7%
CC(=O)N[C@H](C(=O)N1C[C@H](O)C[C@H]1C(=O)NCc1ccc(-c2scnc2C)cc1OC1CCN(C(=O)C2CCN(c3nccc(Sc4cnc(N5CCC(C)(CN)CC5)cn4)c3Cl)CC2)CC1)C1CC1 [Example 91, (2S,4R)-1-((S)-2-acetamido-2-cyclopropylacetyl)-N-(2-((1-(1-(4-((5-(4-(aminomethyl)-4-methylpiperidin-1-yl)pyrazin-2-yl)thio)-3-chloropyridin-2-yl)piperidine-4-carbonyl)piperidin-4-yl)oxy)-4-(4-methylthiazol-5-yl)benzyl)-4-hydroxypyrrolidine-2-carboxamide]	53.2%	98.5%
CC(=O)N[C@H](C(=O)N1C[C@H](O)C[C@H]1C(=O)NCc1ccc(-c2scnc2C)cc1OC1CCN(C(=O)C2CCN(c3cccc(Sc4cnc(N5CCC6(CC5)CO[C@@H](C)[C@H]6N)c(CO)n4)c3Cl)CC2)CC1)C(C)(C)C [Example 85, (2S,4R)-1-((S)-2-acetamido-3,3-dimethylbutanoyl)-N-(2-((1-(1-(3-((5-((3S,4S)-4-amino-3-methyl-2-oxa-8-azaspiro[4.5]decan-8-yl)-6-(hydroxymethyl)pyrazin-2-yl)thio)-2-chlorophenyl)piperidine-4-carbonyl)piperidin-4-yl)oxy)-4-(4-methylthiazol-5-yl)benzyl)-4-hydroxypyrrolidine-2-carboxamide]	98.3%	99.9%
Cc1cn([C@H](C(=O)N2C[C@H](O)C[C@H]2C(=O)NCc2ccc(-c3scnc3C)cc2OC2CCN(C(=O)C3CCN(c4nccc(Sc5cnc(N6CCC(C)(CN)CC6)c(CO)n5)c4Cl)CC3)CC2)C(C)C)nn1 [Example 108, (2S,4R)—N-(2-((1-(1-(4-((5-(4-(aminomethyl)-4-methylpiperidin-1-yl)-6-(hydroxymethyl)pyrazin-2-yl)thio)-3-chloropyridin-2-yl)piperidine-4-carbonyl)piperidin-4-yl)oxy)-4-(4-methylthiazol-5-yl)benzyl)-4-hydroxy-1-((S)-3-methyl-2-(4-methyl-1H-1,2,3-triazol-1-yl)butanoyl)pyrrolidine-2-carboxamide]	99.1%	99.6%
CC(=O)N[C@H](C(=O)N1C[C@H](O)C[C@H]1C(=O)NCc1ccc(-c2scnc2C)cc1OC1CCN(C(=O)C2CCN(c3nccc(Sc4cnc(N5CCC6(CC5)CO[C@@H](C)[C@H]6N)cn4)c3Cl)CC2)CC1)C(C)(C)C [Example 77, (2S,4R)-1-((S)-2-acetamido-3,3-dimethylbutanoyl)-N-(2-((1-(1-(4-((5-((3S,4S)-4-amino-3-methyl-2-oxa-8-azaspiro[4.5]decan-8-yl)pyrazin-2-yl)thio)-3-chloropyridin-2-yl)piperidine-4-carbonyl)piperidin-4-yl)oxy)-4-(4-methylthiazol-5-yl)benzyl)-4-hydroxypyrrolidine-2-carboxamide]	94.4%	98.0%
CC(=O)N[C@H](C(=O)N1C[C@H](O)C[C@H]1C(=O)N[C@@H](C)c1ccc(-c2scnc2C)cc1O[C@H]1CC[C@H](C(=O)N2CC(Nc3nccc(Sc4cnc(N5CCC(C)(CN)CC5)cn4)c3Cl)C2)CC1)C(C)(C)C [Example 49, (2S,4R)-1-((S)-2-acetamido-3,3-dimethylbutanoyl)-N—((S)-1-(2-(((1R,4S)-4-(3-((4-((5-(4-(aminomethyl)-4-methylpiperidin-1-yl)pyrazin-2-yl)thio)-3-chloropyridin-2-yl)amino)azetidine-1-carbonyl)cyclohexyl)oxy)-4-(4-methylthiazol-5-yl)phenyl)ethyl)-4-hydroxypyrrolidine-2-carboxamide]	87.1%	99.4%
Cc1cc(C(C(=O)N2C[C@H](O)C[C@H]2C(=O)NCc2ccc(-c3scnc3C)cc2OC2CCN(C(=O)C3CCN(c4nccc(Sc5cnc(N6CCC(C)(N)CC6)cn5)c4Cl)CC3)CC2)C(C)C)on1 (stereo partly drawn) [Example 94, (2S,4R)—N-(2-((1-(1-(4-((5-(4-amino-4-methylpiperidin-1-yl)pyrazin-2-yl)thio)-3-chloropyridin-2-yl)piperidine-4-carbonyl)piperidin-4-yl)oxy)-4-(4-methylthiazol-5-yl)benzyl)-4-hydroxy-1-(3-methyl-2-(3-methylisoxazol-5-yl)butanoyl)pyrrolidine-2-carboxamide]	95.5%	100.0%
